# In US6803383B2, “Inhibition of angiogenesis and tumor growth” (The Scripps Research Institute, priority 2000, dated 2004):
# Columns and labels:
# [1] = biological target: T1, MMP2 binding to integrin αvβ3 (Homo sapiens, UniProt P05106+P06756); test: Solid phase integrin binding assay: biotinylated MMP2 binding to immobilized integrin; conditions: bMMP2 3-5 nM, FIG. 2A
# T1 construct: purchased Merck KGaA or Chemicon International (integrin); Chemicon (proMMP2) or Calbiochem (active MMP2)
# Method: (§1) Purified integrins were adsorbed overnight onto microtiter wells (1-5 μg/ml, […]) prior to blocking with Caseinblocker (Pierce, Rockford, Ill.). Purified biotinylated MMP2 (bMMP2, 3-5 nM) in binding buffer (50 mM Tris, pH 8, 150 mM NaCl, 1 mM MgCl2, 0.5 mM MnCl2) was added to the wells in the presence or absence of Compound 1, Compound 12, cyclic RGD or RAD peptides, or buffer vehicle alone. Control wells received no integrin. Biotinylated vitronectin (bVN, 1 μg/ml) was used as a reference. Bound protein was detected with HRP-anti-biotin mAb and quantitated at 450 nm with 3,3′,5,5′-tetramethylbenzidine solution (TMB; a substrate for the peroxidase) (BioRad, Hercules, Calif.).
# MMP2 [2] = biological target: T2, MMP2 (Homo sapiens, UniProt P08253); test: [3H]-collagen IV degradation by purified active MMP2 without cells; type: biochemical; conditions: 4 nM active MMP2, 10 μM compound, no cells
# T2 construct: purchased Calbiochem (La Jolla, Calif.)
# T2 sequence (P08253 110-660): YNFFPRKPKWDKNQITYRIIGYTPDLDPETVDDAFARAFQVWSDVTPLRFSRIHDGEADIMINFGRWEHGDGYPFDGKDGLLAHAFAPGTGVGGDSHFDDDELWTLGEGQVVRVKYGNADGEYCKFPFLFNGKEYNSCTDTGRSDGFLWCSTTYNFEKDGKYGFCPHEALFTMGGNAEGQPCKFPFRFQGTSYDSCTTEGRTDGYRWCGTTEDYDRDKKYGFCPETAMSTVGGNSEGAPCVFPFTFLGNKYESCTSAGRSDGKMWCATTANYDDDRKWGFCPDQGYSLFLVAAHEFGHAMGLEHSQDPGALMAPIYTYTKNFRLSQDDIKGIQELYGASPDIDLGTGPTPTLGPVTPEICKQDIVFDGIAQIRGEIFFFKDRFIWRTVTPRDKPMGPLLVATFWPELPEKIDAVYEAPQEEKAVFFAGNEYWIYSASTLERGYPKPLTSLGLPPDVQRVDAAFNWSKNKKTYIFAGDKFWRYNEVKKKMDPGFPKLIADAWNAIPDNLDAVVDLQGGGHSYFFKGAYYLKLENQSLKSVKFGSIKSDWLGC
# Method: (§2) CS-1 cells or β3CS-1 cells were incubated in adhesion buffer fibroblast basal medium (FBM) supplemented with 0.5% bovine serum albumin (BSA), 0.4 mM MnCl2 and 10 μg/ml aprotinin) containing either 4 nM purified active MMP2 alone, or in combination with 10 μM Compound 1 or Compound 12 for 45 minutes at 37° C. prior to washing and addition to the [^3H]-collagen IV-coated wells. Wells had been coated overnight with 50 μl of 0.414 mCi/ml [^3H]-collagen IV (ICN Biochemicals, Costa Mesa, Calif.) and washed extensively until the radioactivity in the recovered wash solution reached background. Alternatively, cells were treated as above in the absence of MMP2, or the MMP2 solutions were added directly to the wells without cells, as controls. Collagen IV degradation was quantitated by measuring the radioactivity released into the 50 μl of culture medium as determined in a liquid scintillation counter. For the assessment of biotinylated MMP2 binding to CS-1 cells, cells were suspended in adhesion buffer and incubated with 12 nM bMMP2 for 45 minutes at 37° C. in the presence or absence of 10 μM Compound 1 or Compound 12. Cells were subsequently washed before lysis and processing for SDS-PAGE and immunoblotting with an anti-biotin mAb.
# [3] = tested on: bFGF-induced angiogenesis on chick CAM; test: Chick chorioallantoic membrane (CAM) angiogenesis assay; type: in vivo; conditions: 10 day chick CAM, 3 μg/ml bFGF, 20 μl of 3 μM compound, 3 days; FIGS. 4A, 4B
# Method: (§3) Angiogenesis was assessed essentially as described previously (Cell, 85, 683-93 (1996); Cell, 92, 391-400 (1998)). After stimulation with 3 μg/ml of basic fibroblast growth factor (bFGF), 10 day chick embryo CAMs were treated with 20 μl of 3 μM Compound 1 or Compound 12. Three days after induction, the CAMs were quantitated in a blind evaluation. CAMs from each group were pooled, minced, and extracted with 50 mM Tris, […], 0.1% Triton X-100 containing COMPLETE-brand protease inhibitor cocktail without EDTA (Boehringer, Mannheim, Germany) prior to analysis by zymography.
# CS-1 cells = test: Biotinylated MMP2 cell-binding assay, β3-negative cells; type: cell-based, hamster; conditions: 12 nM bMMP2, 10 μM compound; FIG. 3B
# Method: as §2, with “Wells” for “CS-1 cells or β3CS-1 cells were incubated in adhesion buffer fibroblast basal medium (FBM) supplemented with 0.5% bovine serum albumin (BSA), 0.4 mM MnCl2 and 10 μg/ml aprotinin) containing either 4 nM purified active MMP2 alone, or in combination with 10 μM Compound 1 or Compound 12 for 45 minutes at 37° C. prior to washing and addition to the [^3H]-collagen IV-coated wells. Wells”
# β3CS-1 cells [4] = test: Cell-mediated [3H]-collagen IV degradation via MMP2; type: cell-based, hamster; conditions: 4 nM active MMP2, 10 μM compound, FIG. 3A
# Method: as §2, with “Wells” for “CS-1 cells or β3CS-1 cells were incubated in adhesion buffer fibroblast basal medium (FBM) supplemented with 0.5% bovine serum albumin (BSA), 0.4 mM MnCl2 and 10 μg/ml aprotinin) containing either 4 nM purified active MMP2 alone, or in combination with 10 μM Compound 1 or Compound 12 for 45 minutes at 37° C. prior to washing and addition to the [^3H]-collagen IV-coated wells. Wells”
# [5] = biological target: T3, MMP2 and tissue inhibitor of metalloproteinase 2 (TIMP2) (Homo sapiens, UniProt P08253); test: Binding between MMP2 and TIMP2
# T3 sequence (P08253 110-660): T2 sequence (P08253 110-660)
# integrin α5β1 = integrin α5β1 (Homo sapiens, UniProt P05556+P08648); test: Direct binding of [14C]-Compound 1 to immobilized control integrin, solid phase
# Method: (§4) Dried wells were separated and immersed in BetaMax liquid scintillation cocktail (ICN Biochemicals, Costa Mesa, Calif.) for quantitation. From this binding curve a subsaturating concentration (3 μM) of [^14C]-Compound 1 was examined in the presence and absence of a 25-fold molar excess ([…]) of unlabeled Compound 1 or Compound 12, or 100 μM cyclic RGD or RAD peptide. Control was bVN, used and detected as described above.
# integrin αvβ3 = biological target: T4, integrin αvβ3 (Homo sapiens, UniProt P05106+P06756); test: Direct binding of [14C]-Compound 1 to immobilized integrin, solid phase
# T4 construct: purchased Merck KGaA or Chemicon International
# Method: as §4
# MMP2 [6] = test: Zymography of chick CAM lysates; type: in vivo; conditions: FIG. 4C
# Method: as §3
# Zymography. Chick CAM lysates were prepared as described above and equal quantities of protein were separated in the absence of reducing agents or boiling on polyacrylamide gels embedded with 0.2% gelatin. The gels were washed with 2% Triton X-100, followed by extensive washing with water prior to overnight incubation at 37° C. in collagenase buffer (50 mM Tris 7.4, 200 mM NaCl 10 mM CaCl2). Gelatinolytic activity was visualized by staining the gels with 0.5% Coomassie blue.
# MMP2 [7] = biological target: T2, MMP2; test: Direct binding of Compound 1 to MMP2 coated on the microtiter well; conditions: data not shown
# [8] = tested on: αvβ3-negative CS-1 melanoma tumors; test: Tumor growth assay on chick CAM; type: in vivo
# Method: Primary tumors were grown on CAMs of 9-day embryos by implantation 5×10^6 CS-1 cells and incubation for 7 days. At this point, 50 mg sections of these tumors were subcultured onto fresh 9-day CAMs and allowed to implant for 24 hours before a single intravenous (IV) injection with 100 μl of 100 μM of test compounds in Hank's Balanced Saline Solution (HBSS). Buffer alone was used as control. Tumors were incubated for a total of 10 days, harvested and trimmed free of excess stromal tissue before determining wet weight and processing for histology.
# Snap-frozen CS-1 tumor sections were fixed with 4% paraformaldehyde and permeablized with 0.1% Triton X-100. Sections were blocked with 5% bovine serum albumin (BSA) in phosphate buffered saline (PBS) prior to staining with an anti-vWF pAb and visualization with an Alexa 568-conjugated anti-rabbit secondary antibody. Samples were analyzed on a MRC1024 confocal microscope (BioRad, Hercules, Calif.). Blood vessel density was quantitated with a 20×objective on four fields per section and four tumors per condition.
# β3CS-1 cells [9] = test: Biotinylated MMP2 cell-binding assay, β3-positive cells; type: cell-based, hamster
# Method: as §2, with “For the assessment of biotinylated MMP2 binding to CS-1 cells, cells were suspended in adhesion buffer and incubated with 12 nM bMMP2 for 45 minutes at 37° C. in the presence or absence of 10 μM Compound 1 or Compound 12. Cells were subsequently washed before lysis and processing for SDS-PAGE and immunoblotting with an anti-biotin mAb.” left out
# Immunoblotting. Equal quantities of protein were separated by SDS-PAGE under reducing conditions and electroblotted to an Immobilon-P membrane (Millipore, Bedford, Md.). The membrane was blocked and immobilized proteins were detected by incubation with an antigen-specific primary antibody, followed by an HRP-conjugated secondary antibody as required. […]
# CS-1 melanoma cells = test: In vitro growth of melanoma cells in co-culture with compound; type: cell-based, hamster; conditions: co-culture with the compound; data not shown
# [10] = biological target: T5, vitronectin binding to integrin αvβ3 (Homo sapiens, UniProt P05106+P06756); test: Solid phase integrin binding assay: biotinylated vitronectin (bVN) binding to immobilized integrin
# T5 construct: purchased Merck KGaA or Chemicon International (integrin)
# Method: as §1, §4
# T4 sequence (P06756 31-889 limits assumed): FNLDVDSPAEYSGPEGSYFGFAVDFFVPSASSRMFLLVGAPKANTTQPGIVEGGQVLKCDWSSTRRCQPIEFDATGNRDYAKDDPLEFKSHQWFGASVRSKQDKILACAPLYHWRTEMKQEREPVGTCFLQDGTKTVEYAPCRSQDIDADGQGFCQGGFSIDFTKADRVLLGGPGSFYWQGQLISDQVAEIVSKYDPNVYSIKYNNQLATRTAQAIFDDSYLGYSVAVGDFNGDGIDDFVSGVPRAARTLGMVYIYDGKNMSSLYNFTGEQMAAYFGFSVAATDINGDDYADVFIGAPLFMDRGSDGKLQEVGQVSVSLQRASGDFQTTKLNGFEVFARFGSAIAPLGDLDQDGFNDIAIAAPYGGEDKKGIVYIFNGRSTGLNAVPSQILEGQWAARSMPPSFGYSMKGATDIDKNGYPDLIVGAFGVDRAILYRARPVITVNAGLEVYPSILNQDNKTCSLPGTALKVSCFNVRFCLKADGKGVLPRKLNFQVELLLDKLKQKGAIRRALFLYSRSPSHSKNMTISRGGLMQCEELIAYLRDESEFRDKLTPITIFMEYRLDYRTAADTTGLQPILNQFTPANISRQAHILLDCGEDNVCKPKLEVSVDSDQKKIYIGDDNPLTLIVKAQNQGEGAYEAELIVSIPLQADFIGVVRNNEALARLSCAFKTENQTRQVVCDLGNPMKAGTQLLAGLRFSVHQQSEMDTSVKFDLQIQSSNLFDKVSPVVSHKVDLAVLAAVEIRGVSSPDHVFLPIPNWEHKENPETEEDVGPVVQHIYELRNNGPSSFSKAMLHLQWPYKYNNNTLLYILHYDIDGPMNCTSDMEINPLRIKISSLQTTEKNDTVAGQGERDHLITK
# T4 sequence (P06756 891-1048 limits assumed): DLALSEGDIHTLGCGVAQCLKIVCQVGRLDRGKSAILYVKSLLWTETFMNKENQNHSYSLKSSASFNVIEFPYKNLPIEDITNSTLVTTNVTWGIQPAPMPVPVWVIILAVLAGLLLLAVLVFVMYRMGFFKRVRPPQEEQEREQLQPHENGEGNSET
# T4 sequence (P05106 27-788): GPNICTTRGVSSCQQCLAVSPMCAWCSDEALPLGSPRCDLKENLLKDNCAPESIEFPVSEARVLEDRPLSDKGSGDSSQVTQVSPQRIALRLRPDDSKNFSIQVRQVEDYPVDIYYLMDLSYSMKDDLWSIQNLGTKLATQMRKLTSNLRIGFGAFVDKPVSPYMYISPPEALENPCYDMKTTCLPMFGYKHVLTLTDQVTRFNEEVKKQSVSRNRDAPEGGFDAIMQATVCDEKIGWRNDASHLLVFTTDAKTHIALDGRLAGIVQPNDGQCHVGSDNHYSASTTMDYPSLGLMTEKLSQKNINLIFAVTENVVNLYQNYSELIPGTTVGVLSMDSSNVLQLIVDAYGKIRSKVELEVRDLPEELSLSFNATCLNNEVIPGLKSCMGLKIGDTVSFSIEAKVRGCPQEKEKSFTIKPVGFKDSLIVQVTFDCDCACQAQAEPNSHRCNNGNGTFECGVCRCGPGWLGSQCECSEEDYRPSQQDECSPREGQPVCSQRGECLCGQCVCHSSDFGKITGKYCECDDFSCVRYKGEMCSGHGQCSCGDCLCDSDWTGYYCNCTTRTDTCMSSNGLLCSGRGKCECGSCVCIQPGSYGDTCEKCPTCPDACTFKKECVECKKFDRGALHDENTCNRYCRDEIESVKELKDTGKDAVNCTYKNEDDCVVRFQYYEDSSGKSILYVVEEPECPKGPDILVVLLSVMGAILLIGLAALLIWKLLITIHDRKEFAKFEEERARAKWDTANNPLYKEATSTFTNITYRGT
# T1 sequence (P06756 31-889 limits assumed): as the sequence (P06756 31-889 limits assumed) above
# T1 sequence (P06756 891-1048 limits assumed): as the sequence (P06756 891-1048 limits assumed) above
# T1 sequence (P05106 27-788): as the sequence (P05106 27-788) above
# Chain of integrin α5β1 (P08648 42-894 limits assumed): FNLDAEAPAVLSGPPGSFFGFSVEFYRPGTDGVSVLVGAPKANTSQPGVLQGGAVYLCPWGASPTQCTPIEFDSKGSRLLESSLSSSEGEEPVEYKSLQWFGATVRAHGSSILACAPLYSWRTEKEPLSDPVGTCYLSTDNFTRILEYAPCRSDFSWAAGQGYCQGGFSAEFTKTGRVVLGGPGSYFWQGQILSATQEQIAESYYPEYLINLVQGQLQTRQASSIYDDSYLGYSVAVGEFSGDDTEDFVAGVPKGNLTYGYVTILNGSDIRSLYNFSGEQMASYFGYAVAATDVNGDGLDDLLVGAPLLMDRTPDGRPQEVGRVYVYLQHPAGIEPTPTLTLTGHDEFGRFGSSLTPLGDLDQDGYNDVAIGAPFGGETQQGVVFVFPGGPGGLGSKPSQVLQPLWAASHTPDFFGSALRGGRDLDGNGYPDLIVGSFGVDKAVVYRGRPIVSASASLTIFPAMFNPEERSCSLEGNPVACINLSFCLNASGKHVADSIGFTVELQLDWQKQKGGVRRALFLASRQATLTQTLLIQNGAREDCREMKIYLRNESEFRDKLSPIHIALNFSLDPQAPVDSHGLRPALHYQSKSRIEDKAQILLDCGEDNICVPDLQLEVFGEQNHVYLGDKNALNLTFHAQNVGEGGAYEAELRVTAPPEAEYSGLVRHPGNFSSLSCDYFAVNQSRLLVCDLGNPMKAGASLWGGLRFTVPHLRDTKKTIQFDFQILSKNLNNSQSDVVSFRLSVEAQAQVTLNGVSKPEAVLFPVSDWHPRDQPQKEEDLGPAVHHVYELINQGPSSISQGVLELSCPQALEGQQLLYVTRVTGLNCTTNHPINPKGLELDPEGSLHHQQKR
# Chain of integrin α5β1 (P08648 895-1049 limits assumed): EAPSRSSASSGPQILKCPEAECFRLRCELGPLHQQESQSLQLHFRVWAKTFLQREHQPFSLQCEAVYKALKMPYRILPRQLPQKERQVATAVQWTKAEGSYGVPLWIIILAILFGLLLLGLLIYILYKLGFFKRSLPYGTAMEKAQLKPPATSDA
# Chain of integrin α5β1 (P05556 21-798): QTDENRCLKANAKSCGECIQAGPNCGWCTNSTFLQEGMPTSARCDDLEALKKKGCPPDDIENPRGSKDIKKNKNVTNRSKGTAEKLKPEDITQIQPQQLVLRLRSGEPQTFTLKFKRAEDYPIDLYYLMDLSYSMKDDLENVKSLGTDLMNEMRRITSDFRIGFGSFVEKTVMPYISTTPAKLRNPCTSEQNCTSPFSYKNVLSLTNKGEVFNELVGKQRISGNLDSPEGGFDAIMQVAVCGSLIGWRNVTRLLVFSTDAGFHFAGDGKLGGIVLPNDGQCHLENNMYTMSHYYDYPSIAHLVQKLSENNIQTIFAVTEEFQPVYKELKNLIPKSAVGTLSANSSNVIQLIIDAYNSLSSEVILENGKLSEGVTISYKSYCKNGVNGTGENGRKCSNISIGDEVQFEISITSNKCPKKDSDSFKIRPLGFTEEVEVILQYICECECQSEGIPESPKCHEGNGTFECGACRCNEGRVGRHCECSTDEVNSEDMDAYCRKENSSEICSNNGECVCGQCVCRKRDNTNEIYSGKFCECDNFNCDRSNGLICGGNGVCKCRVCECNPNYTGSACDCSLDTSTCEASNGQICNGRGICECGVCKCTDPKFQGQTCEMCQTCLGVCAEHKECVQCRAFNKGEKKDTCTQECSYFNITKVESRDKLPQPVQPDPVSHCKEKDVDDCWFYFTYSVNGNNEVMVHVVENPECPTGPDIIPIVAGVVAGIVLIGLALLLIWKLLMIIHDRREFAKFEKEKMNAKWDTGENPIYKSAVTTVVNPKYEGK
# T5 sequence (P06756 31-889 limits assumed): as the sequence (P06756 31-889 limits assumed) above
# T5 sequence (P06756 891-1048 limits assumed): as the sequence (P06756 891-1048 limits assumed) above
# T5 sequence (P05106 27-788): as the sequence (P05106 27-788) above
compound,measurement,setting,value
COC(=O)[C@H](CCCCNC(=O)CNC(=O)COCC(=O)O)NC(=O)OCc1ccc(C(F)(F)F)cc1 [Compound 8],Effect on MMP2 binding to integrin αvβ3,[1],inactive
"COC(=O)[C@H](CCCCNC(=O)CNC(=O)c1ccccc1)NC(=O)OCc1ccc(C(F)(F)F)cc1 [Compound 6, (S)-Methyl 6-[2-(benzoylamino)acetamido]-2-[(4-trifluoromethyl)benzyloxycarbonyl)hexanoate]",Effect on MMP2 binding to integrin αvβ3,[1],slightly less active than Compound 1
"O=C(CNC(=O)c1cccc(C(=O)NCC(=O)NCCCC[C@H](NC(=O)c2ccccc2)C(=O)O)c1)NCCCC[C@H](NC(=O)c1ccccc1)C(=O)O [Compound 12, N,N′-Bis-[N-(-5-(S)-((benzoyl)amino)-5-(carboxy)pentyl)carboxamidomethyl]benzene-1,3-dicarboxamide]",Effect on MMP2 binding to integrin αvβ3,[1],neither the control compound nor the control peptide cRADfV interfered
same,Effect on [3H]collagen IV degradation by purified active MMP2 in the absence of cells,MMP2 [2],still able to degrade
same,Effect on development of new blood vessels in bFGF-stimulated CAM,[3],ineffective
same,Effect on biotinylated MMP2 binding to β3-negative CS-1 cells,CS-1 cells,not diminished
same,Effect on MMP2-enhanced cell-mediated [3H]collagen IV degradation,β3CS-1 cells [4],negligible effect
"O=C(CNC(=O)c1cccc(C(=O)NCC(=O)NCCCC[C@H](NC(=O)OCc2ccc(C(F)(F)F)cc2)C(=O)O)c1)NCCCC[C@H](NC(=O)OCc1ccc(C(F)(F)F)cc1)C(=O)O [Compound 1, N,N^1-Bis-[(5-(S)-carboxy-5-[((4-trifluoromethyl)benzyloxycarbonyl)amino]-pentyl)carboxamidomethyl]benzene-1,3-dicarboxamide]",Effect on binding between MMP2 and TIMP2,[5],not inhibited
same,Effect on MMP2 binding to integrin αvβ3,[1],completely abrogated
same,Direct binding to control integrin α5β1,"integrin α5β1; [14C]-labeled Compound 1, FIG. 2B",minimal interaction
same,Direct binding to integrin α5β1 at higher concentrations,"integrin α5β1; higher concentrations of compound, data not shown",negligible binding
same,Effect on [3H]collagen IV degradation by purified active MMP2 in the absence of cells,MMP2 [2],still able to degrade
same,Inhibition of [14C]-Compound 1 binding to integrin αvβ3 by unlabeled compound,"integrin αvβ3; 3 μM [14C]-Compound 1, 25-fold molar excess of unlabeled compound, FIG. 2C",inhibited
same,Direct binding to integrin αvβ3,"integrin αvβ3; [14C]-labeled Compound 1, titration, FIG. 2B",bound directly
same,"Levels of active MMP2 (62 kDa) in CAM tissues, treated versus untreated",MMP2 [6],equivalent levels of active MMP2
same,Overall levels of MMP2 in CAM lysates,MMP2 [6],unaffected
same,Direct binding to MMP2 coated on the well,MMP2 [7],no binding
same,Effect on development of new blood vessels in bFGF-stimulated CAM,[3],almost completely abolished
same,Overall tumor blood vessel density,[8]; anti-vWF immunofluorescence of tumor sections,gross reduction
same,Cell death within the tumor mass,"[8]; single IV injection, 100 μl of 100 μM",significant cell death
same,Tumor weight,"[8]; single IV injection, 100 μl of 100 μM, 10 days, wet weight",significantly retarded
same,Growth of transplanted CS-1 melanoma tumors on chick CAM,"[8]; single IV injection, 100 μl of 100 μM, 10 days, FIG. 5A",significantly retarded
same,Tumor surface vasculature,"[8]; single IV injection, 100 μl of 100 μM, FIG. 5A",gross reduction
same,Effect on biotinylated MMP2 binding to β3-negative CS-1 cells,CS-1 cells,not diminished
same,Effect on enhanced biotinylated MMP2 binding to β3CS-1 cells,"β3CS-1 cells [9]; 12 nM bMMP2, 10 μM compound, FIG. 3B",specifically suppressed
same,"Biotinylated MMP2 binding to β3CS-1 cells, corrected for lane loading","β3CS-1 cells [9]; 10 μM compound, corrected by anti-actin mAb staining, FIG. 3B lane 2",reduced the binding of MMP2 to the β3CS-1 cells to the level observed in the absence αvβ3
same,Growth of CS-1 melanoma cells in vitro,CS-1 melanoma cells,not affected
same,Effect on MMP2-enhanced cell-mediated [3H]collagen IV degradation,β3CS-1 cells [4],specifically abolished
cRGDfV [reference compound],Effect on MMP2 binding to integrin αvβ3,[1],lack of effect
same,Inhibition of bVN binding to immobilized integrin αvβ3 by peptide,"[10]; 100 μM cyclic peptide, FIG. 2D",completely abolished
same,Effect on vitronectin binding to integrin αvβ3,"[10]; bVN 1 μg/ml, FIG. 2A",inhibited
same,Inhibition of [14C]-Compound 1 binding to integrin αvβ3 by peptide,"integrin αvβ3; 3 μM [14C]-Compound 1, 100 μM cyclic peptide, FIG. 2D",inability of the cRGDfV peptide to inhibit
